Here are results for four compounds from paper PMC12472621, “Excavating Precursors from Herb Pairs Polygala tenuifolia and Acori tatarinowii: Synthesis and Anticonvulsant Activity Evaluation of 3,4,5-Trimethoxycinnamic Acid (TMCA) Piperazine Amide Derivatives” (Pharmaceuticals, 2025).

Molecules are shown by their SMILES. Values joined by “and” are separate entries in the source; they are usually repeats but may differ in a detail not shown here. Equal entries are not always repeated. Where two headings read alike, the source gives them in different places.

The test system of one data set is LDH enzyme. Nature of the data set: In vitro LDH assay. In kind it is biochemical. As for the experimental part: Employing the commercial LDH enzyme (Solarbio Life Science, Beijing, China, CAS:9001-60-9, Lot. Document No. 14240222001) includes a colorimetric assay kit designed to assess the synthesized substances’ capacity to suppress the LDH enzyme, using established techniques with slight alterations. In summary, a 96-well microplate was filled with 30 μL of LDH enzyme (300 U/mL) and 70 μL of the inhibitor mixture (0.1 mM in final concentration). Following a 10 min pre-incubation process at ambient temperature, […] of NADH (0.2 mM) was introduced. Subsequently, each well received 40 μL of phosphate buffer (20 mM, pH 6.8), reaching a total volume of 250 μL, followed by a 10 min incubation of the assay plate at 28 °C. Subsequently, […] absorbance was gauged at 340 nm utilizing a SpectraMax 190 Absorbance Microplate Reader (Molecular Devices, San Jose, CA, USA). […] In the initial screening, the level of suppression by the test substances was denoted as a percentage (%). The calculation for the LDH inhibition ratio was as follows:Inhibition (%) = [(Asample − Ablank)/Acontrol] × 100%
Asample denotes the OD340 absorbance of test compound and Ablank is the OD340 absorbance for the blank. Acontrol represents the OD340 absorbance of control.

Data set [1] deals with mice. Kind of data set: Acute neurotoxicity screening (rotarod test). Conditions: i.p., 30 min post-administration, 95% confidence intervals in parentheses. In kind it is in vivo. The method, then:
(§1) Male Kunming mice (23–28 g) were maintained under controlled conditions with ad libitum access to standard pellet diet and water. Test compounds were formulated immediately prior to administration in normal saline containing 0.5% Tween-80. Our experiment was authorized by the Institutional Animal Care and Use Committee of Shaanxi University of Chinese Medicine (animal ethics certificate number: SUCMDL20210309027).
(§2) Neurotoxicity was assessed via a rotarod test. Mice were trained to maintain balance on a rotating rod (diameter: 4 cm; 24 rpm). Trained animals received i.p. injections of test compounds or reference drugs. At 30 min post-administration, neurologic impairment was defined as failure to remain on the rod for 3 min (≥3 falls within the testing period). Data were used to calculate TD50 values.
A general note: Falling from the rotarod earlier than controls is read as motor impairment.

Data set [2] is described as follows: Acute neurotoxicity screening (rotarod test). It is filed as in vivo, mice. The note with it: male, Kunming, mouse, in vivo, ip, 30 min post-administration, 95% confidence intervals in parentheses. The method, then:
as §1, §2

Data set [3] deals with maximal electroshock (MES) induced seizures. Kind of data set: Maximal electroshock (MES) test. It is filed as in vivo, mice. The note with it: Mus musculus, ip; for ED50: 95% confidence intervals in parentheses.
Excerpt: as §1
The MES test carried out following the method of Swinyard. A 60 Hz current (50 mA; 0.25 s duration) was delivered via corneal electrodes using a YSD-4G electro convulsion meter (Zhenghua Instruments, Huaibei, China, SN: ZH0056232). […] Test compounds were suspended in an identical vehicle. Protection was defined as abolition of tonic hindlimb extension.
(Protection in the maximal electroshock model is a classic sign of anticonvulsant action.)

Data set [4] has as its system scPTZ-induced seizures. Kind of data set: Pentylenetetrazole (PTZ)-induced seizure test (scPTZ). It is filed as in vivo. The note with it: 100 mg/kg i.p., PTZ 85 mg/kg s.c., mice. As for the experimental part:
as §1
Seizures were induced by subcutaneous (s.c.) administration of PTZ (85 mg/kg in 1% v/v Tween-80/0.9% NaCl), 30 min after compound treatment. This dose produces clonic seizures (≥5 s duration) in 97% of naive mice. Latency to seizure onset was recorded during continuous observation.

Data set [5] deals with LDH. Nature of the data set: Immunofluorescence staining for LDH in hippocampus. It is filed as in vivo. The note with it: hippocampus CA1, PTZ model mice. The method, then: Brain samples were extracted, preserved in 4% paraformaldehyde for a day, and subsequently immersed in a 30% sucrose solution to dehydrate. Post OCT embedding, slices of brain tissue measuring 16 μm in thickness were sliced using a cryostat. Following the permeabilization using 0.5% TritonX-100 and subsequent blocking with 10% goat serum at ambient temperature to remove nonspecific staining, the tissue samples were subjected to overnight incubation at 4 °C with the primary antibody, LDHA (Proteintech (Rosemont, IL, USA), Cat No. 19987-1-AP, Lot: 00106920, rabbit anti-rat 1:200). On the next day, the slides underwent incubation using a secondary antibody. The slides underwent counterstaining using DAPI. […] slices were examined and visualized utilizing the VS200-BU Slide Scanner (Olympus Corporation, Tokyo, Japan).

Data set [6] deals with neurons in CA1 and CA3 regions of the hippocampus. Nature of the data set: Silver staining of hippocampal tissue. In kind it is in vivo. Conditions: PTZ model mice, compared with PTZ group. The method, then: Following the creation of the PTZ model, a modified version of the silver impregnation staining technique was applied for silver staining, enabling the observation of changes in neuronal fibers and synapses throughout diseases. Brain tissue slices from each mouse, encased in paraffin, underwent deparaffinization using xylene and absolute ethanol, followed by a treatment in acidic formaldehyde, and then incubation in a glycine–silver mixture. Following the application of a reducing solution for staining, the samples were analyzed using an optical microscope. Against a yellow backdrop, nerve cells’ axons, dendrites, collagen fibers, and neurofibrillary tangles were colored in dark brown or black.

The test system of data set [7] is PTZ-induced epileptic spikes. Nature of the data set: Electroencephalogram (EEG) after PTZ. In kind it is in vivo, mice. Conditions: 100 mg/kg i.p. An excerpt: Mice sedated with urethane were subjected to aseptic craniotomy, involving the stereotaxic insertion of cortical screw electrodes aligned with bregma coordinates (anterior–posterior: +3.0 mm; mediolateral: ±1.5 mm) and a reference electrode (anterior–posterior: −2.0 mm; mediolateral: −1.5 mm). The electrodes were secured using dental acrylic, followed by a recovery period of 5–7 days for the animals before the instrumentation. The continuous EEG data were captured through using 8-channel bioamplifiers linked to a PowerLab 8/30 system (AD Instruments, Shanghai, China). After a 30 min acclimatization period in the recording chambers, initial activity levels were documented for 15–20 min. […] After 60 min, pentylenetetrazol (PTZ, 85 mg/kg i.p.) was administered, initiating seizure. Sampling of EEG signals occurred at a frequency of 200 Hz, utilizing a bandpass filter ranging from 0.1 to 60 Hz. Electrographic convulsions were characterized by spikes surpassing double the baseline amplitude, quantified by (1) the delay before the initial spike (seconds after PTZ); (2) the frequency of spikes (counts per 60 s period from the first spike) through established peak-detection methods.

In data set [8] the test system is LDH. Conditions: original ligand of the LDH co-crystal complex; cited from earlier work.
Data set [9] has as its system scPTZ-induced seizures. On the set-up: method as in PMID 31539780. The note with it: reference drug; cited from earlier work.
For data set [10], the system named is mice. On the set-up: method as in PMID 31539780. The note with it: reference drug; cited from earlier work.
[11] abbreviates: 0.5 h, read-out: MES model, protected mice/total mice, 0.5 h.
[12] abbreviates: 1 h, read-out: MES model, protected mice/total mice, 1 h.
Where [13] appears, read: 2 h, read-out: MES model, protected mice/total mice, 2 h.
Where [14] appears, read: 3 h, read-out: MES model, protected mice/total mice, 3 h.

One may read the ED50 as the dose at which the effect has come halfway, by size or by number of responders. As for `C/C=C/c1ccc(OC(=O)CCCN2CCN(C(=O)/C=C/c3cc(OC)c(OC)c(OC)c3)CC2)c(OC)c1` [A3, methoxy-4-((E)-prop-1-en-1-yl)phenyl 4-(4-((E)-3-(3,4,5-trimethoxyphenyl)acryloyl)piperazin-1-yl)butanoate], the “LDH Inhibition Ratio (0.1 mM)” value in the data set on LDH enzyme stood at 37.6 ± 8.1%. Moreover, in the data set on mice [1], the TD50 result is “weak neurotoxicity”. In data set [2], the TD50 at 30 min turned out to be 443 mg/kg. In addition, the responders at 100 mg/kg in [3] (100 mg/kg i.p., mice, 0.5 h, read-out: MES model, protected mice/total mice, 0.5 h (converted)) was 100%; in data set [3] (100 mg/kg i.p., mice, 1 h, read-out: MES model, protected mice/total mice, 1 h (converted)) it was 75%; in data set [3] (100 mg/kg i.p., mice, 2 h, read-out: MES model, protected mice/total mice, 2 h (converted)) it was 50%; in data set [3] (100 mg/kg i.p., mice, 3 h, read-out: MES model, protected mice/total mice, 3 h (converted)) it was 25%. For the same compound, in [3] (mice), the ED50 amounted to 73.3 mg/kg. In addition, the “SCPTZ Latent Time (100 mg/kg, s)” value in the data set on scPTZ-induced seizures [4] is reported as 222.0 ± 14.7 s. For the same compound, the “SCPTZ Protective Ratio (100 mg/kg)” value in the data set with scPTZ-induced seizures [4] is given as 1/4.

For `COc1cc(/C=C/C(=O)N2CCN(C(=O)CCC(=O)N3CCN(C(c4ccc(F)cc4)c4ccc(F)cc4)CC3)CC2)cc(OC)c1OC` [B9, (E)-1-(4-(bis(4-fluorophenyl)methyl)piperazin-1-yl)-4-(4-(3-(3,4,5-trimethoxyphenyl)acryloyl)piperazin-1-yl)butane-1,4-dione], in the data set with LDH [5], the LDH immunolabelling intensity entry was “lower than the values found in the PTZ group”. Besides, the “silver staining, neurons in hippocampal CA1 and CA3” value in [6] is on record as “alleviated symptoms”. In [2], the TD50 at 30 min was 235 mg/kg. For the same compound, the responders at 100 mg/kg was 100% in [3] (setting [11]), 75% in data set [3] (setting [12]), 25% in data set [3] (setting [13]) and 0% in [3] (setting [14]). In data set [3] (mice), the ED50 is 23.6 mg/kg. Moreover, in the data set with scPTZ-induced seizures [4], the “SCPTZ Latent Time (100 mg/kg, s)” value was 274.3 s and 274.3 ± 17.2 s. Further, the “SCPTZ Protective Ratio (100 mg/kg)” value with scPTZ-induced seizures [4] is 3/4. The “latency to the first PTZ-induced epileptic spike (EEG)” value in data set [7] (PTZ 85 mg/kg i.p. after 60 min) was “extended”. The “spike frequency within 60 s post-initial spike (EEG)” value in [7] (compared to PTZ controls) is on record as “significantly reduced”.

In general, IC50 refers to the concentration at which inhibition is half-maximal. Consider `O=C1N[C@](c2ccc(N3CCOCC3)cc2)(c2ccsc2)CC(O)=C1Sc1ccccc1Cl` [GEN-140], for which the IC50 in the data set with LDH [8] is 3 nM.

Regarding `CC(C)(C)C(O)/C=C/c1ccc2c(c1)OCO2` (stereo not drawn) [STP, Stiripentol, reference compound], in the data set on scPTZ-induced seizures [9], the “SCPTZ Latent Time (100 mg/kg, s)” value is listed as 269.5 ± 19.8 s. Besides, the “SCPTZ Protective Ratio (100 mg/kg)” value in the data set with scPTZ-induced seizures [9] is listed as 2/4. Moreover, in the data set with LDH enzyme, the “LDH Inhibition Ratio (0.1 mM)” value is listed as 46.1 ± 6.2%. The LDH immunolabelling intensity result in the data set on LDH [5] was “lower than the values found in the PTZ group”. Moreover, the “silver staining, neurons in hippocampal CA1 and CA3” value in data set [6] was “alleviated symptoms”. For the same compound, the responders at 100 mg/kg in data set [3] (setting [11]) is 100%; in data set [3] (setting [12]), 50%; in [3] (setting [13]), 25%; in [3] (setting [14]), 0%. The TD50 in the data set on mice [10] is reported as 161.7 (146.2–256.2) mg/kg.
